Laboratory results taken from ChEMBL document CHEMBL1147725, “Identification and biological characterization of 6-aryl-7-isopropylquinazolinones as novel TRPV1 antagonists that are effective in models of chronic pain” (J Med Chem, 2006).
≈ marks a conversion by molar mass, not a printed value.

Experiments:
[1] = molecular target: T1, Transient receptor potential cation channel subfamily V member 1 (Homo sapiens, UniProt Q8NER1); assay: Inhibition of calcium influx evoked by capsaicin in human TRPV1 expressing cells by fluorescence assay; type: functional
T1 sequence (Q8NER1 whole entry): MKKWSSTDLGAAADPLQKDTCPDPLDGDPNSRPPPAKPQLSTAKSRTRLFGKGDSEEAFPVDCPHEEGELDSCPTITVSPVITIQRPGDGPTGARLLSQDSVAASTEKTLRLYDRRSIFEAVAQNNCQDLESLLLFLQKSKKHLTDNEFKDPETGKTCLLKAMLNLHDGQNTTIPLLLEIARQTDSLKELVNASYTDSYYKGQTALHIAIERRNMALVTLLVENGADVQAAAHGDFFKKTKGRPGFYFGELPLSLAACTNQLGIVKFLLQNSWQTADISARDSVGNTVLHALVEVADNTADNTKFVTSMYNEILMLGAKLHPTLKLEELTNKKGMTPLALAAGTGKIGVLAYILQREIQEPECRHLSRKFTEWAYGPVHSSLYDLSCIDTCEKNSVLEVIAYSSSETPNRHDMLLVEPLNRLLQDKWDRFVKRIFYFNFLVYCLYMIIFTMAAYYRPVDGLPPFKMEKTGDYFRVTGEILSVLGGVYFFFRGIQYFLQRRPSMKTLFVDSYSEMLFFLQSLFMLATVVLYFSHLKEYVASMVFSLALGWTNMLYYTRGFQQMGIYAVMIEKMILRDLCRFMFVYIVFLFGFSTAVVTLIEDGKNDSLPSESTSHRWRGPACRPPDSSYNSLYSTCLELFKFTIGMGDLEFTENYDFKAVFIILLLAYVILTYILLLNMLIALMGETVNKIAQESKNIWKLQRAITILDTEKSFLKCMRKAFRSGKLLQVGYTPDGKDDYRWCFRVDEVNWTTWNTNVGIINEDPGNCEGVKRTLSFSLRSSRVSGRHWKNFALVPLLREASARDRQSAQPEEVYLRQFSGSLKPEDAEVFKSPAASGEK

[2] = Aqueous solubility at pH 6.8 and 25 degC; type: physicochemical; settings: aqueous medium
[3] = molecular target: T1, Transient receptor potential cation channel subfamily V member 1; assay: Inhibition of low pH activation of human TRPV1; type: functional
[4] = molecular target: T2, Transient receptor potential cation channel subfamily V member 1 (Rattus norvegicus, UniProt O35433); assay: Inhibition of low pH activation of rat TRPV1; type: functional
T2 sequence (O35433 whole entry): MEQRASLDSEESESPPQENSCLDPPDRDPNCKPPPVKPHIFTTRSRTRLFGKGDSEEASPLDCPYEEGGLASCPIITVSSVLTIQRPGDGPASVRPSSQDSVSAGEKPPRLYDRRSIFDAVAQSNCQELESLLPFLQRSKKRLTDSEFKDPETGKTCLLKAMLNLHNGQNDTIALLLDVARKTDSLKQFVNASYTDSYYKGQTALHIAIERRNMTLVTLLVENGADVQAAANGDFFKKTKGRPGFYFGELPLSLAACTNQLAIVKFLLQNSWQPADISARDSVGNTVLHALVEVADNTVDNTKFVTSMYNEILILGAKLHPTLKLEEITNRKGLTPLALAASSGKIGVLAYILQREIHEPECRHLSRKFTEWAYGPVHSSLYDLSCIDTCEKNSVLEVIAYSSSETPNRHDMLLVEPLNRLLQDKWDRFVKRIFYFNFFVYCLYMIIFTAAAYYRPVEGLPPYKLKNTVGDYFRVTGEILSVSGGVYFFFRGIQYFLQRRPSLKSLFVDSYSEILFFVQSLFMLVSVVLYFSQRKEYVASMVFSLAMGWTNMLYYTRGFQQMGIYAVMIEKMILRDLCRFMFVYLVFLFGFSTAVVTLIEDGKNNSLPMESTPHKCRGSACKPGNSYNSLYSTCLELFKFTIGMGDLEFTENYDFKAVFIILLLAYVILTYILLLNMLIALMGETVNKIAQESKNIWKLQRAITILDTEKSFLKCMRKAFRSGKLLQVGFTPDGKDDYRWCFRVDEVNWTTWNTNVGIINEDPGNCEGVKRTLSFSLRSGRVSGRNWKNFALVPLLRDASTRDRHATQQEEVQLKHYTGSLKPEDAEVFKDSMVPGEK

[5] = molecular target: T2, Transient receptor potential cation channel subfamily V member 1; assay: Inhibition of calcium influx evoked by capsaicin in rat TRPV1 expressing cells by fluorescence assay; type: functional, cell-based

Structure (SMILES)	IC50 [1] [nM]	also measured
Cc1nc2cc(C(C)C)c(-c3ccc(Cl)cc3)cc2c(=O)[nH]1	13	solubility [2]: 4 µg/mL (≈ 12.8 µM)
CC(C)c1cc2nc(N)[nH]c(=O)c2cc1-c1ccc(Cl)cc1	133	
Oc1cc2c(cc1O)CN(C(=S)NCCc1ccc(Cl)cc1)CCC2 [CAPSAZEPINE]	334	
CCOc1cc(-c2cc3c(=O)[nH]c(C)nc3cc2C(C)C)c(Cl)cc1Cl	37	
CC(C)(C)c1nc2[nH]c(=S)[nH]c(=O)c2cc1-c1ccccc1	100	IC50 [3]: 49 nM; IC50 [4]: 25 nM; IC50 [5]: 90 nM
CCOc1cc(-c2cc3c(=O)[nH]c(C)nc3cc2C(C)C)ccc1OC	286	

More lines, main results first:

IC50 [1] [nM]	Structure (SMILES)	also measured
42	Cc1nc(O)c2cc(-c3ccc(C)c(Cl)c3)c(C(C)C)cc2n1	
144	Cc1nc(O)c2cc(-c3ccc(Cl)c(OCC4CCC4)c3)c(C(C)C)cc2n1	
557	Cc1nc(O)c2cc(-c3ccc(Cl)c(OCCO)c3)c(C(C)C)cc2n1	
487	Cc1nc2cc(C(C)C)c(-c3ccc(Cl)c(OCCN(C)C)c3)cc2c(=O)[nH]1	
23	Cc1nc2cc(C(C)C)c(-c3ccc(Cl)c(F)c3)cc2c(=O)[nH]1	
201	Cc1nc(O)c2cc(-c3ccc(Cl)c(OC(C)C)c3)c(C(C)C)cc2n1	
